Read-outs that look alike come from different tables or passages of the source.
How the values were obtained:
CYP1A2 = type: in vitro ADME, human; conditions: for Enzyme Activity CYP1A2: n=3
[1] = tested on: BALB/c mice, 6.11 Gy γ-radiation TBI; assay: Hematopoietic ARS (H-ARS) CBC time course, 6.11 Gy; type: in vivo, mouse
Description: For the time course analysis of hematopoietic ARS (H-ARS), female mice were grouped 5 per treatment cohorts; γ-radiation only cohort (positive control) and γ-radiation with EC-18 250 mg/kg cohort. For the analysis of dose effect of EC-18 administration on H-ARS, mice were grouped 8 (5 males and 3 females) per treatment cohorts; γ-radiation only cohort (positive control), γ-radiation with EC-18 50 mg/kg cohort, γ-radiation with EC-18 100 mg/kg cohort, γ-radiation with EC-18 250 mg/kg cohort and γ-radiation with EC-18 100 mg/kg cohort. The whole blood was collected from the orbital sinuses using EDTA-free capillary tubes (Kimble Chase Life Science and Research Products LLC, FL, USA) and collection tubes containing K3E-K3EDTA (Greiner Bio-One International, Kremsmunster, Austria).
The therapeutic effect of EC-18 administration on H-ARS was then evaluated. […] Groups of BALB/c mice (n=5, female for FIG. 32A through FIG. 32E and n=8, 5 male, 3 female for FIG. 32F through FIG. 32J) were exposed to 6.11Gy of γ-radiation and various doses of EC-18 were orally administered once daily to day 15, or remained untreated. FIGS. 32A through 32E show the time course of the white blood cell count (WBC; FIG. 32A), absolute Neutrophil count (ANC; FIG. 32B), absolute Lymphocyte count (ALC; FIG. 32C), platelet count (PLT; FIG. 32D) and red blood cell count (RBC; FIG. 32E) over 15 days, respectively. FIG. 32F through FIG. 32J show the dose effect of EC-18 administration on WBC (FIG. 32F), ANC (FIG. 32G), ALC (FIG. 32H), PLT (FIG. 32I) and BRC (FIG. 32J) on day 15, respectively. ns; not significant,* p<0.05, **p<0.01, *** p<0.005.

[2] = tested on: Balb/c mice, whole body radiation 1 Gy; assay: Blood immune cell counts (CBC) in radiation-induced leukopenia (RIL) ARS model; type: in vivo, mouse
Text: Balb/c mice (9-week-old male) were purchased from Koatech (Pyeongtaek, Republic of Korea) and maintained in a specific pathogen-free (SPF) environment to establish an animal model of acute radiation syndrome. In order to evaluate the effect of PLAG on the reduction of immune cells by radiation, the following three groups were constructed for this study. (1) normal control group (positive control); (2) Radiotherapy-Radiation induced leukopenia (RIL) group (negative control group); And (3) RIL+PLAG treated group (experimental group).
Specifically, mice treated with RIL and […] were exposed to whole body radiation at 1 Gy (100 rad=1.06 min). For the RIL+PLAG treatment group, 50 mg/kg/day of PLAG (Enzychem Lifesciences Co., Daejeon, Republic of Korea) was orally administered daily for 4 consecutive days after irradiation. The normal controls were not exposed to radiation. On the 5th day after irradiation, blood samples were collected, and then Complete Blood Count (CBC) was measured using a Mindray BC-5300 auto hematology analyzer (Shenzhen Mindray Bio-medical Electronics, China) so that the number of blood leukocytes, neutrophils and lymphocytes in blood could be counted (FIG. 1).

[3] = Fertility and early embryonic developmental toxicity study; type: in vivo, rat; conditions: both sexes, SD, rat, in vivo; both males and females
Text: (§1) Various toxicology studies have been performed. All studies were GLP-compliant unless otherwise noted.

SD rat = assay: as above; type: in vivo; conditions: Oral; 0, 500, 1000, 2000 mg/kg
Text: as §1

[4] = In vitro metabolic stability / metabolite screening, statements over all species; type: in vitro ADME, rat, dog, monkey, human
Description: [^14C]EC-18 or the positive control (7-ethoxycoumarin; 7-EC) reacted with microsomes prepared from hepatocytes of rats, dogs, monkeys, and humans, with or without cofactors, for 60 and 120 min. Then, the residual EC-18 concentration over time was measured by LC-RID ([^14C]EC-18) or LC-MS/MS (7-EC) (FIG. 63 and FIG. 64).
The LC-RID chromatographic profiles of radioactive metabolites produced in the 2-hr incubation reaction mixtures of the same test systems A, B, and C used to assess the metabolic and non-metabolic elimination rates of EC-18 were compared to the LC-UV chromatographic profiles of the synthetic reference material. […] The relative radioactivity of EC-18 accounted for 42-67% of total radioactivity. The peaks designated as M2, M3, and M5 were also determined in all species, and their relative radioactivity accounted for 12-34% of total radioactivity. The peaks of M4 and M6 were determined in monkeys and humans. M1 was abundantly detected in all species, but it was assumed to be a peak of early elution. The LC-UV chromatograms of reaction mixtures in each test system (FIGS. 65A-65C) and the relative radioactivity of the screened metabolites are shown in Table 25.

[5] = EC-18 250 mg/kg daily, n=5 female
[6] = RIL + PLAG 50 mg/kg/day oral 4 days, day 5, n=3

## CCCCC/C=C\C/C=C\CCCCCCCC(=O)OC(COC(C)=O)COC(=O)CCCCCCCCCCCCCCC (stereo not drawn) [EC-18, 1-palmitoyl-2-linoleoyl-3-acetylglycerol]
CYP1A2; 1 μM
  Enzyme Activity CYP1A2: 0.33 ± 0.04 pmol/106 Cells/Min
CYP1A2; 10 μM
  Enzyme Activity CYP1A2: 0.38 ± 0.06 pmol/106 Cells/Min
CYP1A2; 100 μM
  Enzyme Activity CYP1A2: 0.33 ± 0.04 pmol/106 Cells/Min
CYP1A2; up to 100 μM
  potential to induce CYP1A2: no potential to induce
[1]; [5]
  duration of severe neutropenia: 7.2 ± 1.79 days
  mean first day of neutropenia (ANC<500 cells/μL): 2.2 ± 1.09 days
  mean nadir of ANC: 20.0±10.00 cells/μL
[1]; oral once daily to day 15
  reduction of PLT and RBC induced by a single TBI: attenuated
  γ-radiation-induced depletion of WBC, ANC and ALC: significantly attenuated
[2]; PLAG 50 mg/kg/day, day 5
  increase of blood leukocyte count vs RIL group: 63%
  increase of blood lymphocyte count vs RIL group: 85%
  increase of blood neutrophil count vs RIL group: 34%
[2]; [6]
  Lymphocyte: 2.2±0.42 10^3/μL
  Neutrophils: 1.17±0.35 10^3/μL
  White blood cells: 3.56±0.84 10^3/μL
[3]
  NOAEL: 2000 mg/kg/day
SD rat
  mortality: No dead animals
[4]; 2-hr incubation, all species and test systems
  relative radioactivity of total radioactivity: 42-67%
[4]; 1 hr, test systems A, B, C, all species
  residual EC-18 concentration relative to initial concentration: ≥ 50%
[4]; 2 hrs
  order of residual EC-18 concentration: human>rat and dog>monkey
[4]; 2 hrs, all test systems, all species except monkeys
  residual EC-18 concentration: ≥ 50%
